First: ON=Cc1c(O)ccc2c1OCO2
Second: Cc1ccc(C=NO)cc1Cl
The melting point of the first is higher: 161 to 162 °C for the first, 66 to 68 °C for the second.

First: CCCCCCC(C(C)O)n1cnc(C(N)=O)c1N (stereo not given)
Second: CCCCCCCCCCCCOC(=O)N[C@@H](CCCCN)C(=O)O
The melting point of the first is lower: 159 to 160 °C for the first, over 260 °C for the second.

Compared with `Nc1cccc(C(=O)OC2CCN(Cc3ccccc3)CC2)c1`, `COc1ccc(C(=O)NCC(=O)N2c3ccccc3N(Cc3ccccc3)C(=O)[C@H]3CCC[C@H]32)cc1OC` (relative stereo) is higher in melting point: 70 to 71 °C for the first, 174 to 176 °C for the second.

First: CC1Cc2cc3c(cc2C(c2ccc([N+](=O)[O-])cc2)=NN1c1nc(=O)n(C2CC2)s1)OCO3 (stereo not given)
Second: COc1cc(OC)c2c(=O)[nH]c(-c3ccc(OC4CCN(C(C)=O)CC4)cc3)nc2c1
The melting point of the first is lower: 246 to 247 °C for the first, 275 to 277 °C for the second.

Compared with `Cc1c(-c2ccccc2)oc2c(C(=O)N(C)CCCl)cccc2c1=O`, `CCOC(=O)c1cnc(-c2ccccc2)nc1Nc1ccccc1N` is higher in melting point: 126 to 128 °C for the first, 154 to 156 °C for the second.

First: O=[N+]([O-])c1cc(C(F)(F)F)cc(C(F)(F)F)c1S(=O)(=O)Oc1ccccc1
Second: N#Cc1ncn2c(C(F)(F)F)cc(-c3ccc(C(F)(F)F)cc3)nc12
The melting point of the first is lower: 83 to 84 °C for the first, 236 °C for the second.

First: CCCOc1cc2c(c3c1OC(C)(C)C3)C(c1cccc(-c3ccncc3)c1)=NC(C)(C)C2
Second: CCOC(=O)c1cncc(OC)c1CCCOc1cccnc1Oc1cccc(Cl)c1
The melting point of the first is higher: 132 to 134 °C for the first, 82 to 83 °C for the second.

First: Cc1cc2ccc(CCCCCN3CCN(c4cccc(Cl)c4Cl)CC3)nc2[nH]c1=O
Second: CCOC(=O)c1ncn2c1[C@@H]1CCN1C(=O)c1c(Cl)cccc1-2
The melting point of the first is lower: 157 to 158 °C for the first, 184 to 185 °C for the second.

First: Cc1sc(-c2ccncc2)nc1CCOc1ccc(C[C@H](Nc2ccccc2C(=O)c2ccccc2)C(=O)O)cc1
Second: O=C(NCCOc1ccc(-c2ccccc2)cc1)N[C@@H](Cc1ccccc1)C(=O)O
The melting point of the first is lower: 155 to 158 °C for the first, 175 °C for the second.

Compared with `CCCCNC(=O)NS(=O)(=O)Cc1c(C(=O)OC)cccc1S(=O)(=O)N(C)C`, `COc1cccc(N2CCN(C(=O)NCCN(C)C)CC2)c1` is lower in melting point: 118 to 134 °C for the first, 70 to 72 °C for the second.

First: CCCCCCCCCCOc1ccc(-c2ccc(CCCCC(C)O)cc2)cc1 (stereo not given)
Second: CCCCCCCCCCc1ccnc(C(=O)NCCCCC(=O)O)c1
The melting point of the first is higher: 92 to 93 °C for the first, 54 to 56 °C for the second.

Compared with `O=C(O)C(=O)c1ccc(OCc2cc3ccccc3o2)cc1`, `OCc1cccc2cc3ccccc3cc12` is higher in melting point: 120 °C for the first, 124 to 125 °C for the second.

First: Clc1cccc(-c2cc(Cl)nc3ccc(Br)cc23)c1
Second: CC(C)COc1c(-c2ccc(S(N)(=O)=O)cc2)cnn(-c2cccc(Cl)c2)c1=O
The melting point of the first is higher: 125 °C for the first, 80 to 85 °C for the second.

First: CCc1cc(-c2ccc(-c3cc(CCC(=O)NCc4cccnc4)[nH]n3)cc2)ccc1O
Second: O=C(O)COC1c2ccccc2COc2ccc(OCc3ccc4cc(Cl)ccc4n3)cc21 (stereo not given)
The melting point of the first is higher: 210 to 214 °C for the first, 179 to 180 °C for the second.

Compared with `CCCCCCCOc1ccc(C2CCC(=O)O2)cc1` (single isomer, unassigned), `CCCCC1(CCCC)CS(=O)(=O)c2ccc(N(C)C)cc2[C@@H](c2ccc(OCc3cccc(CCC(=O)O)n3)cc2)[C@H]1O` is higher in melting point: 44 °C for the first, 105 to 107 °C for the second.

First: COc1cccc(-c2nc3n(n2)CCc2cc(OC)c(OC)cc2-3)c1
Second: COc1cc(C(O)P(=O)(OC)OC)cc(OC)c1OC (stereo not given)
The melting point of the first is higher: 132 to 133 °C for the first, 103 to 104 °C for the second.

First: CCn1c(=O)n(CCCCC(C)=O)c(=O)c2c1ncn2Cc1ccccc1
Second: Nc1ccc2c3c(cccc13)C(=O)N(CCCCBr)C2=O
The melting point of the first is lower: 123 to 125 °C for the first, 175 to 176 °C for the second.

First: Oc1ccc2oc(-c3cccc(O)c3O)nc2c1
Second: Oc1ccc2c(c1O)Cc1ccccc1-2
The melting point of the first is higher: 239 to 241 °C for the first, 159 to 162 °C for the second.

Compared with `CC(=O)Nc1ccc(F)c(-c2ccccn2)c1F`, `CCC(COc1cccc(C(F)(F)F)c1)OC(=O)NCc1ccccc1` (stereo not given) is lower in melting point: 132 to 133 °C for the first, 73 to 74 °C for the second.

`COc1ccc2c(c1)c(CC(=O)O)c(C)n2C(=O)c1c(Cl)cc(Cl)cc1Cl` and `Nc1nc(N)c(CCCNc2ccc(C(=O)N[C@@H](CCC(=O)O)C(=O)O)cc2)c(=O)[nH]1` cannot be ordered by melting point: 193 to 196 °C for the first, 195 to 200 °C for the second.

Compared with `CN(C)CCSC1=Nc2ccc(Br)cc2C(c2ccccc2F)=NC1`, `COc1ccccc1-c1ccc(S(N)(=O)=O)c(N)c1` is higher in melting point: 105 to 108 °C for the first, 219 to 221 °C for the second.

Compared with `NC(=O)N(O)CCOCc1cccs1`, `CCCN(CCC)C1CCc2c(ccc3[nH]cc(C(C)=O)c23)C1` (stereo not given) is higher in melting point: 91 to 92 °C for the first, 196 to 197 °C for the second.

First: Cc1ccc(S(=O)(=O)Nc2onc(C)c2Br)cc1
Second: COc1cc2ncnc(N3CCN(C(=S)Nc4ccc(S(=O)(=O)N5CCCCC5)cc4)CC3)c2cc1OC
The melting point of the first is higher: 169 to 172 °C for the first, 149 to 150 °C for the second.

Compared with `CSc1ccc(C(O)c2ccccc2)cc1` (stereo not given), `O=C(c1ccc(Cl)cc1)C1(n2cncn2)CC1` is lower in melting point: 92 to 93.5 °C for the first, 78 °C for the second.

First: C=C(C)OC(=O)N1c2cnccc2NC(=O)C1C (racemic)
Second: CC1(CNC(=O)C2CCCCC2)OCCc2c1[nH]c1ccccc21 (stereo not given)
The melting point of the first is higher: 236 °C for the first, 174 to 175 °C for the second.
